Measurements from ChEMBL document CHEMBL1201862, “PubChem BioAssay data set” (2004).
Active and inactive are the calls of the source.

Legend:
[1] = molecular target: Glycogen synthase kinase-3 beta (Homo sapiens, UniProt P49841); assay: inhibition of human GSK3B activity – biochemical, microfluidics, dry powder samples, set 2, dose response (AID 623989); format: functional
[2] = general mammalian cell viability loss – inhibitor set, cherry-pick, set 2, cytotoxicity control for miR-122 modulator project, dose response (AID 720697); format: functional, cell-based
[3] = molecular target: Glycogen synthase kinase-3 alpha (Homo sapiens, UniProt P49840); assay: GSK3A enzyme blockers, homolog specificity check – biochemical, microfluidics, dry powder samples, set 2, selectivity assay for GSK3beta inhibitor project, dose response (AID 623978); format: functional
[4] = THP-1 cell cytotoxicity, cytotoxicity control, set 5 (AID 588443); format: functional
[5] = HepG2 cell cytotoxicity, cytotoxicity control, set 5 (AID 588441); format: functional; conditions: Mycobacterium tuberculosis
[6] = Vero cell viability loss – purified and synthesized compounds, set 6, cytotoxicity control for M. tuberculosis inhibitor project, dose response (AID 588445); format: functional; conditions: Mycobacterium tuberculosis
[7] = A High Throughput Confirmatory Assay used to Identify Novel Compounds that Inhibit Mycobacterium Tuberculosis in the absence of Glycerol using Purified and Synthesized Compounds (3).; format: functional
Wee1-like protein kinase = Wee1-like protein kinase (Homo sapiens, UniProt P30291); assay: Navigating the Kinome. Panel member name: WEE1; format: functional
[8] = molecular target: Cell division cycle 7-related protein kinase (Homo sapiens, UniProt O00311); format: functional;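 further: value obtained from a kinome-wide kinase panel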
Cell division cycle 7-related protein kinase, sequence (O00311 whole entry): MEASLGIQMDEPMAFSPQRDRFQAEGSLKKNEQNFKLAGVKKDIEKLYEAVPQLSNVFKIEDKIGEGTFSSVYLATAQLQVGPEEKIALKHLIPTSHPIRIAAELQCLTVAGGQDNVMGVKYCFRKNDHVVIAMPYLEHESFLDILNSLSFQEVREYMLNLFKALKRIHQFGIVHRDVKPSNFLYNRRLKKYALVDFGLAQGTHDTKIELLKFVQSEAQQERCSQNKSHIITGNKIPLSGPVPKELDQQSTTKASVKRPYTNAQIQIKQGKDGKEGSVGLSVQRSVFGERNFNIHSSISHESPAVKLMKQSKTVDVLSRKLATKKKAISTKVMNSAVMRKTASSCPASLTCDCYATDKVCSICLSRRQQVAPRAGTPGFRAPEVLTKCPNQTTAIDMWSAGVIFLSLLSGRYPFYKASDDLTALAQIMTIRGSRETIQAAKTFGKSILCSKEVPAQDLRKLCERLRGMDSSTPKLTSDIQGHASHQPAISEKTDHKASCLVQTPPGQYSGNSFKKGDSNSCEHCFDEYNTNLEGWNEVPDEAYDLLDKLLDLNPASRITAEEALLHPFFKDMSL

[9] = molecular target: Cyclin-dependent kinase 19 (Homo sapiens, UniProt Q9BWU1); assay: Navigating the Kinome. Panel member name: CDC2L6; format: functional
Cyclin-dependent kinase 19, sequence (Q9BWU1 whole entry): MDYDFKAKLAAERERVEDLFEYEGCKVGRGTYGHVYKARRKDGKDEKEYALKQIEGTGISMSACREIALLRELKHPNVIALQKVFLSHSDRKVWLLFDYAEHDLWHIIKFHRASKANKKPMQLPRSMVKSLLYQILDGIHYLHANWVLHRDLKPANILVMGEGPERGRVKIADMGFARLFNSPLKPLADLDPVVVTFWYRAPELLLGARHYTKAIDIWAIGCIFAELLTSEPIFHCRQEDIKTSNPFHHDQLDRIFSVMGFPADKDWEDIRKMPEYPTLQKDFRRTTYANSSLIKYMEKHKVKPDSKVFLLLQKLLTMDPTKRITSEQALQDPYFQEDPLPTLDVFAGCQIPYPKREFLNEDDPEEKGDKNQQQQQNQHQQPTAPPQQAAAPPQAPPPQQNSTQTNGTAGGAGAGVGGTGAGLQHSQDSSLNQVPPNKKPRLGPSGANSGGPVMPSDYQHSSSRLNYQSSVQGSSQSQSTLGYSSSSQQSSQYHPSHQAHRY

[10] = molecular target: Dual specificity protein kinase CLK4 (Homo sapiens, UniProt Q9HAZ1); format: functional
Dual specificity protein kinase CLK4, sequence (Q9HAZ1 whole entry): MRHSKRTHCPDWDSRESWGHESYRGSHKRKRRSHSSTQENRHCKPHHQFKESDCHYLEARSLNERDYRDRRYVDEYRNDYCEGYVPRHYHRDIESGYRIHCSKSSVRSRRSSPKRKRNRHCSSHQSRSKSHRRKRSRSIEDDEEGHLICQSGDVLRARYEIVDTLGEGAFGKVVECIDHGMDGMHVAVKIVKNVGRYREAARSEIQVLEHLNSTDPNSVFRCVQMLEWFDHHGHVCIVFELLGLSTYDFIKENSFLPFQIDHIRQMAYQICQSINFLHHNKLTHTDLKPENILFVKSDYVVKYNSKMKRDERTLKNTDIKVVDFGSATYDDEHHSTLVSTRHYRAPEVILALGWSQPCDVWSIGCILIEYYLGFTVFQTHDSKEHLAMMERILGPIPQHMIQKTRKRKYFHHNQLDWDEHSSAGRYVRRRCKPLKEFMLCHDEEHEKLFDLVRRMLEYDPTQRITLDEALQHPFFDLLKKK

[11] = molecular target: MAP kinase-activated protein kinase 5 (Homo sapiens, UniProt Q8IW41); format: functional;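 further: measured as one member of a kinome panel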
[12] = molecular target: Serine/threonine-protein kinase pim-1 (Homo sapiens, UniProt P11309); format: functional
Serine/threonine-protein kinase pim-1, sequence (P11309 whole entry): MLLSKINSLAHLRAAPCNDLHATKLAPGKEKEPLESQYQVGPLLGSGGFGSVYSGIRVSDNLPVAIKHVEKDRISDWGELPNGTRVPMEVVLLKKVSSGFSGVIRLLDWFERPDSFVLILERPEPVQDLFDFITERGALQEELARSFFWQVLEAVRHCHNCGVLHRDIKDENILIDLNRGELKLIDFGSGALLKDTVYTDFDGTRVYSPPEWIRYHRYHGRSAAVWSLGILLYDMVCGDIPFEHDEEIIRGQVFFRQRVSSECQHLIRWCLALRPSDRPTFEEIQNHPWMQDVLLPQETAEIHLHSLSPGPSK

[13] = molecular target: Protein-tyrosine kinase 2-beta (Homo sapiens, UniProt Q14289); format: functional
SRSF protein kinase 1 = SRSF protein kinase 1 (Homo sapiens, UniProt Q96SB4); format: functional;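 further: measured as one member of a kinome-wide kinase profiling panel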
[14] = molecular target: Tyrosine-protein kinase receptor UFO (Homo sapiens, UniProt P30530); format: functional
[15] = molecular target: Vascular endothelial growth factor receptor 2 (Homo sapiens, UniProt P35968); format: functional
Vascular endothelial growth factor receptor 2, sequence (P35968 whole entry): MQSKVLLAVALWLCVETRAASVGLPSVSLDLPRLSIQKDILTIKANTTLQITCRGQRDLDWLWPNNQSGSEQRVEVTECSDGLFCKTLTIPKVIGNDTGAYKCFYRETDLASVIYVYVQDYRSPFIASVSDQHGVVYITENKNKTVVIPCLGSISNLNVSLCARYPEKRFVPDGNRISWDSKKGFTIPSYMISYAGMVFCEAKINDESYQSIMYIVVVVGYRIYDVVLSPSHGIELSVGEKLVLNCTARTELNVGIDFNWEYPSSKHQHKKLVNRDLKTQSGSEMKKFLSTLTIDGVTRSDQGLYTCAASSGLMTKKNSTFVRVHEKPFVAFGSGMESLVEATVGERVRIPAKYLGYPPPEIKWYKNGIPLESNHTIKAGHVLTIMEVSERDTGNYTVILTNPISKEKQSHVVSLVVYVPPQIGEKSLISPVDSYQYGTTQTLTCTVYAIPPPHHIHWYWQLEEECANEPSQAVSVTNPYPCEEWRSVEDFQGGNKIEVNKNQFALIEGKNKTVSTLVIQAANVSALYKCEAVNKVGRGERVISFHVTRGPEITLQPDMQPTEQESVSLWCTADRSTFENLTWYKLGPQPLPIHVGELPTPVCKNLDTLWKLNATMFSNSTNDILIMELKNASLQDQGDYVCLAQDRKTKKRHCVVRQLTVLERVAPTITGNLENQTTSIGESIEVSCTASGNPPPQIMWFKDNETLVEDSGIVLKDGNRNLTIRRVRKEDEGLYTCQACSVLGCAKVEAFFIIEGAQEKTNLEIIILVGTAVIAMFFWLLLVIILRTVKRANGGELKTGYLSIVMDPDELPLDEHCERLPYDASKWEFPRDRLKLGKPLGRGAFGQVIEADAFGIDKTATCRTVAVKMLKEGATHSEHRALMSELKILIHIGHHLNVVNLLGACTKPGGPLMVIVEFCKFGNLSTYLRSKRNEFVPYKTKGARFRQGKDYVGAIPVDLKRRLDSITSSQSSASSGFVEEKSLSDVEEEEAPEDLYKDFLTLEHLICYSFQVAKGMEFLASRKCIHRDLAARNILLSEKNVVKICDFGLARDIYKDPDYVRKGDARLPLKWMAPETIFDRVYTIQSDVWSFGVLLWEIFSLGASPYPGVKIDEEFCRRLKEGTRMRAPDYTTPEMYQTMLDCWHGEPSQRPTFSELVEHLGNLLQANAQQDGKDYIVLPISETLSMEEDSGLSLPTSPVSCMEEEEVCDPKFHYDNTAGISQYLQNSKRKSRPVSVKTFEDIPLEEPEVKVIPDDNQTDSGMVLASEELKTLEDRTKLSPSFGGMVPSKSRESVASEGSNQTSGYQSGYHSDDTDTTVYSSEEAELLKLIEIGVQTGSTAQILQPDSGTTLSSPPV

Aurora kinase A = Aurora kinase A (Homo sapiens, UniProt O14965); format: functional;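 further: value from the Navigating the Kinome kinase panel profiling, panel entry STK6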
Aurora kinase B = Aurora kinase B (Homo sapiens, UniProt Q96GD4); format: functional
Aurora kinase B, sequence (Q96GD4 whole entry): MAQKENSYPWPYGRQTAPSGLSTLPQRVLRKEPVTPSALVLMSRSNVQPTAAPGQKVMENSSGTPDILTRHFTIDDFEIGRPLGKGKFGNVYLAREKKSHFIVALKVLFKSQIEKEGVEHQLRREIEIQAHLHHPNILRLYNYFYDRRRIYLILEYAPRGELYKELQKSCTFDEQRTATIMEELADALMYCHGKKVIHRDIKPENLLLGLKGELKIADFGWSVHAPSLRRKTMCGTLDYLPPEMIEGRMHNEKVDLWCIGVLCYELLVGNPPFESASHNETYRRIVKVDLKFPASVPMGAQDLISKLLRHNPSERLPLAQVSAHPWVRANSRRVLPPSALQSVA

[16] = molecular target: DNA dC->dU-editing enzyme APOBEC-3A (Homo sapiens, UniProt P31941); assay: SAR analysis of small molecule inhibitors of APOBEC3A DNA Deaminase via a fluorescence-based single-stranded DNA deaminase assay - Set 2.; format: functional; conditions: read-out: IC50_Mean
DNA dC->dU-editing enzyme APOBEC-3A, sequence (P31941 whole entry): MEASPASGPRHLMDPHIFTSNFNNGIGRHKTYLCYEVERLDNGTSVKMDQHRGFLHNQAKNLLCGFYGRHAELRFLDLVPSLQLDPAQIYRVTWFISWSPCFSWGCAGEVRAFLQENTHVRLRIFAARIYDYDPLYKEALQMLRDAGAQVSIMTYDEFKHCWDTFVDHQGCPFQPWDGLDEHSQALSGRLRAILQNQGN

[17] = molecular target: DNA dC->dU-editing enzyme APOBEC-3G (Homo sapiens, UniProt Q9HC16); assay: SAR analysis of small molecule inhibitors of APOBEC3G DNA Deaminase via a fluorescence-based single-stranded DNA deaminase assay - Set 2.; format: functional; conditions: read-out: IC50_Mean
[18] = molecular target: T1, Sphingosine 1-phosphate receptor 4 (Homo sapiens, UniProt O95977); assay: Late-stage fluorescence-based dose-response cell-based counterscreen assay to identify agonists of the Sphingosine 1-Phosphate Receptor 3 (S1P3): Sphingosine 1-Phosphate Receptor 4 (S1P4) agonist assay.; format: functional
T1 sequence (O95977 whole entry): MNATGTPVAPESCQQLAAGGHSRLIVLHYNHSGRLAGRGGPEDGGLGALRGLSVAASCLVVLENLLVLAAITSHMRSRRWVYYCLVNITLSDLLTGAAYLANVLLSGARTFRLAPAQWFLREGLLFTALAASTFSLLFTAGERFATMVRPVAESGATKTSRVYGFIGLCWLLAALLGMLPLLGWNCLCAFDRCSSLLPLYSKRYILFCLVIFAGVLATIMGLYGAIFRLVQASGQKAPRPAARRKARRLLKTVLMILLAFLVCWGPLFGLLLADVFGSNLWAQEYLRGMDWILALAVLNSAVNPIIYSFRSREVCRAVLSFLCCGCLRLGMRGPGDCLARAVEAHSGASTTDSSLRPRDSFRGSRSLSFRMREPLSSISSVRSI

[19] = molecular target: Sphingosine 1-phosphate receptor 2 (Homo sapiens, UniProt O95136); assay: Late-stage fluorescence-based dose-response cell-based counterscreen assay to identify agonists of the Sphingosine 1-Phosphate Receptor 3 (S1P3): Sphingosine 1-Phosphate Receptor 2 (S1P2) agonist assay.; format: functional
[20] = molecular target: Serine/threonine-protein kinase pim-3 (Homo sapiens, UniProt Q86V86); format: functional;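 further: value obtained as one member of a broad kinase panel profiling effort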
[21] = molecular target: Melanin-concentrating hormone receptor 1 (Homo sapiens, UniProt Q99705); assay: Late-stage fluorescence-based counterscreen for antagonists of the G-protein coupled receptor 7 (GPR7): cell-based dose response assay to identify antagonists of the melanin-concentrating hormone receptor 1 (MCHR1) Set 6.; format: functional
[22] = molecular target: T2, Neuropeptides B/W receptor type 1 (Homo sapiens, UniProt P48145); assay: human NPBW1 receptor blockade, IC50 – cell-based, fluorescence, dose response, set 6, late-stage follow-up (AID 588583); format: functional
T2 sequence (P48145 whole entry): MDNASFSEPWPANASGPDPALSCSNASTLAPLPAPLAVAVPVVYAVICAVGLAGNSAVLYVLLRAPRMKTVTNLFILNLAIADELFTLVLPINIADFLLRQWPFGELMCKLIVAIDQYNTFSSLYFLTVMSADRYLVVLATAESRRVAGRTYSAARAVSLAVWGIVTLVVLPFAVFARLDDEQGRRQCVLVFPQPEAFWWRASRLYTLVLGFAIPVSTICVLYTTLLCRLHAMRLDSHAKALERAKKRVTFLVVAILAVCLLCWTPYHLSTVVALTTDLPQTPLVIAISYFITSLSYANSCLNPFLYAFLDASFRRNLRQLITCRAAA

[23] = molecular target: Leucine-rich repeat serine/threonine-protein kinase 2 (Homo sapiens, UniProt Q5S007); format: functional;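 further: value from a broad kinome-wide panel profiling study in which LRRK2 was one of the kinases tested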
[24] = molecular target: Rho-associated protein kinase 1 (Homo sapiens, UniProt Q13464); format: functional;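 further: measured within a broad kinome-wide panel profiling many kinases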
[25] = molecular target: Macrophage-stimulating protein receptor (Homo sapiens, UniProt Q04912); assay: Navigating the Kinome. Panel member name: MST1R; format: functional
[26] = molecular target: Fibroblast growth factor receptor 1 (Homo sapiens, UniProt P11362); format: functional
Fibroblast growth factor receptor 1, sequence (P11362 whole entry): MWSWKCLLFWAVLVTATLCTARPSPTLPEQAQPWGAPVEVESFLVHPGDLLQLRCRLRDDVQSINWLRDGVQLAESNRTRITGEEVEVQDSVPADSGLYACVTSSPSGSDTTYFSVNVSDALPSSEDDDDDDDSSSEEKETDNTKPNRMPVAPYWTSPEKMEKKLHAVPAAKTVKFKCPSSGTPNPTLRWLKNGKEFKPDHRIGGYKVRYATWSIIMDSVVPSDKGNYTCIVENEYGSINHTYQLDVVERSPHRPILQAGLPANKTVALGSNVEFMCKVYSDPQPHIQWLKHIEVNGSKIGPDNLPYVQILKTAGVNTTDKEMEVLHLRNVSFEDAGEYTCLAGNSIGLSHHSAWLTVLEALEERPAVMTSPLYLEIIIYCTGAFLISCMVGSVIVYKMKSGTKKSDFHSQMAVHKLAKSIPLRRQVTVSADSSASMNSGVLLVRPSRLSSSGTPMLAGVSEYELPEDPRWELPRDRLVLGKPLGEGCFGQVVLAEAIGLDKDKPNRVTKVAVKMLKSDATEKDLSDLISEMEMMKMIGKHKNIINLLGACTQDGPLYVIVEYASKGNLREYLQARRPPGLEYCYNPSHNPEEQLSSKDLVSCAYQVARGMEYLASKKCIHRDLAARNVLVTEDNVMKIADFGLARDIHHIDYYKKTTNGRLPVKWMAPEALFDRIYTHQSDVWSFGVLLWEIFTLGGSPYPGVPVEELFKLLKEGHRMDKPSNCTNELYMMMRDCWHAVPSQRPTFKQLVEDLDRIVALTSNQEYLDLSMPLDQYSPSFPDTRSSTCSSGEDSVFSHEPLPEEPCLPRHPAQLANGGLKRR

[27] = molecular target: Tyrosine-protein kinase JAK3 (Homo sapiens, UniProt P52333); format: functional
[28] = molecular target: Dual specificity protein kinase CLK2 (Homo sapiens, UniProt P49760); format: functional
[29] = molecular target: MAP/microtubule affinity-regulating kinase 3 (Homo sapiens, UniProt P27448); format: functional;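 further: MARK3 affinity measured as one member of a kinome panel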
[30] = molecular target: 5'-AMP-activated protein kinase catalytic subunit alpha-1 (Homo sapiens, UniProt Q13131); format: functional
[31] = molecular target: Proto-oncogene tyrosine-protein kinase receptor Ret (Homo sapiens, UniProt P07949); format: functional;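 further: measured within a kinome-wide profiling panel, RET as the panel member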
[32] = molecular target: Casein kinase I isoform alpha (Homo sapiens, UniProt P48729); format: functional
Casein kinase I isoform alpha, sequence (P48729 whole entry, canonical isoform): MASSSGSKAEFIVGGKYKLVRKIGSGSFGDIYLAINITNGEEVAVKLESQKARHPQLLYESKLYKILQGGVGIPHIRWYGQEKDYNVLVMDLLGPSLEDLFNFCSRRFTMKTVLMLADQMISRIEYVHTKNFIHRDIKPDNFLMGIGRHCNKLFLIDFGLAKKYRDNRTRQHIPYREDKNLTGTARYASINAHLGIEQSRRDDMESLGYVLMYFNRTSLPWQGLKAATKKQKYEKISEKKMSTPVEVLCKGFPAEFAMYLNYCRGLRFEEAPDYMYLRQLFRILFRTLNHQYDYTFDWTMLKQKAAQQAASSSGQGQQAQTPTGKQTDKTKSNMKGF

[33] = molecular target: Vascular endothelial growth factor receptor 1 (Homo sapiens, UniProt P17948); format: functional;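 further: measured within a kinome-wide profiling panel, FLT1 as the panel member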
[34] = molecular target: G protein-coupled receptor kinase 5 (Homo sapiens, UniProt P34947); assay: Navigating the Kinome. Panel member name: GPRK5; format: functional
[35] = molecular target: cAMP-dependent protein kinase catalytic subunit PRKX (Homo sapiens, UniProt P51817); format: functional
[36] = molecular target: Dual specificity tyrosine-phosphorylation-regulated kinase 1B (Homo sapiens, UniProt Q9Y463); assay: Navigating the Kinome. Panel member name: DYRK1B; format: functional
[37] = molecular target: Cyclin-dependent kinase 8 (Homo sapiens, UniProt P49336); assay: Navigating the Kinome. Panel member name: CDK8; format: functional
[38] = molecular target: Tyrosine-protein kinase JAK2 (Homo sapiens, UniProt O60674); format: functional;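 further: JAK2 tested as one member of a kinase panel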
[39] = molecular target: Serine/threonine-protein kinase TAO1 (Homo sapiens, UniProt Q7L7X3); format: functional
[40] = molecular target: Leukocyte tyrosine kinase receptor (Homo sapiens, UniProt P29376); assay: Navigating the Kinome. Panel member name: LTK; format: functional
[41] = molecular target: Tyrosine-protein kinase receptor TYRO3 (Homo sapiens, UniProt Q06418); format: functional;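 further: TYRO3 value obtained as one member of a kinome-wide profiling panel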
[42] = molecular target: Mitogen-activated protein kinase kinase kinase kinase 4 (Homo sapiens, UniProt O95819); format: functional
Activin receptor type-1 = Activin receptor type-1 (Homo sapiens, UniProt Q04771); assay: Navigating the Kinome. Panel member name: ACVR1; format: functional
[43] = molecular target: Dual specificity mitogen-activated protein kinase kinase 1 (Homo sapiens, UniProt Q02750); assay: Navigating the Kinome. Panel member name: MAP2K1; format: functional
[44] = molecular target: Inhibitor of nuclear factor kappa-B kinase subunit epsilon (Homo sapiens, UniProt Q14164); assay: Navigating the Kinome. Panel member name: IKBKE; format: functional
[45] = molecular target: Mitogen-activated protein kinase 10 (Homo sapiens, UniProt P53779); assay: Navigating the Kinome. Panel member name: MAPK10; format: functional
[46] = molecular target: Ribosomal protein S6 kinase alpha-3 (Homo sapiens, UniProt P51812); format: functional;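 further: measured within a kinome-wide profiling panel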
[47] = molecular target: Dual specificity tyrosine-phosphorylation-regulated kinase 1A (Homo sapiens, UniProt Q13627); format: functional;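 further: measured against DYRK1A as one member of a broad kinome profiling panel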
Activated CDC42 kinase 1 = Activated CDC42 kinase 1 (Homo sapiens, UniProt Q07912); assay: Navigating the Kinome. Panel member name: ACK1; format: functional
[48] = molecular target: Mast/stem cell growth factor receptor Kit (Homo sapiens, UniProt P10721); format: functional;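 further: KIT entry within a kinase panel assay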
[49] = molecular target: ALK tyrosine kinase receptor (Homo sapiens, UniProt Q9UM73); format: functional;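 further: ALK tested as one member of a kinase panel screen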

Compound: Clc1ccc(CSc2nnc(-c3ccncc3)o2)c(Cl)c1
- AC50 [1]: 1.83 µM (active)
- AC50 [2]: 8.31 µM (active)
- AC50 [3]: 24 µM (active)

Compound: Cc1cccc(N2CCN(C(=O)c3ccc(CNc4c(N5CCC(C)CC5)c(=O)c4=O)cc3)CC2)c1C
- CC50 [4]: 8.21 µM (active)
- CC50 [5]: > 15 µM (active)
- CC50 [6]: > 30 µM (active)
- IC50 [7]: > 25 µM (active)

Compound: c1cc(NC2CCCCC2)nc(Nc2ccc3[nH]ncc3c2)n1
- Ki (Wee1-like protein kinase): > 3.16 µM (inactive)
- Ki [8]: 0.2 µM (active)

Compound: Oc1cncc2nc(-c3ccncc3)ccc12
- Ki [9]: > 100 µM (inactive)
- Ki [8]: 0.501 µM (active)

Compound: O=C1CC(c2ccc(Cl)cc2)Cc2[nH]c3cc(Cl)ccc3c(=O)c21 (stereo unspecified)
- Ki [10]: 6.31 µM (active)
- Ki [11]: 1.26 µM (active)
- Ki [12]: 5.01 µM (active)
- Ki [13]: 1.58 µM (active)
- Ki (SRSF protein kinase 1): 6.31 µM (active)
- Ki [14]: 1.58 µM (active)

Compound: O=C(CCCCCCC(=NO)c1ncco1)Nc1cccc(-c2ccccc2)c1
- Ki [15]: > 5.01 µM (inactive)
- Ki (Aurora kinase A): > 2 µM (inactive)
- Ki (Aurora kinase B): 0.0251 µM (active)

Compound: CCCn1c(=O)c2ccccc2n2c(SC)nnc12
- IC50 [16]: > 99 µM (inactive)
- IC50 [17]: > 99 µM (inactive)

Compound: CC(C)Cc1cc(C(=O)N(C2CCCCC2)C2CCCCC2)no1
- EC50 [18]: > 50 µM (inactive)
- EC50 [19]: > 50 µM (inactive)

Compound: N=C(N)Cc1cccc(-c2nc3ccccc3[nH]2)c1
- Ki [12]: 5.01 µM (active)
- Ki [20]: 3.98 µM (active)
- Ki (Aurora kinase B): 2.51 µM (active)

Compound: N#CC(c1ccc2c(c1)OCO2)c1c(Cl)cnn(Cc2cccc3ccccc23)c1=O (stereo unspecified)
- IC50 [21]: 0.41 µM (active)
- IC50 [22]: 0.41 µM (active)

Compound: O=C(Nc1cccc(C(F)(F)F)n1)Nc1ccnc2ccc(F)cc12
- Ki [23]: > 2.51 µM (inactive)
- Ki [24]: > 3.98 µM (inactive)
- Ki [15]: > 2.51 µM (inactive)
- Ki [25]: > 3.98 µM (inactive)
- Ki [26]: > 3.98 µM (inactive)
- Ki [27]: > 5.01 µM (inactive)
- Ki [10]: 0.1 µM (active)
- Ki [28]: 3.16 µM (active)
- Ki [29]: > 5.01 µM (inactive)
- Ki [30]: > 3.16 µM (inactive)
- Ki [31]: > 3.16 µM (inactive)
- Ki [32]: > 3.98 µM (inactive)
- Ki [33]: > 3.98 µM (inactive)
- Ki [34]: > 3.98 µM (inactive)
- Ki [12]: > 6.31 µM (inactive)
- Ki [35]: > 3.16 µM (inactive)
- Ki [36]: 2 µM (active)
- Ki [37]: 0.0794 µM (active)
- Ki [38]: > 2.51 µM (inactive)
- Ki [39]: > 2.51 µM (inactive)
- Ki [40]: > 3.16 µM (inactive)
- Ki [41]: > 3.16 µM (inactive)
- Ki [42]: > 5.01 µM (inactive)
- Ki (Activin receptor type-1): 1.58 µM (active)
- Ki [43]: > 3.16 µM (inactive)
- Ki [44]: > 3.16 µM (inactive)
- Ki [45]: > 3.16 µM (inactive)
- Ki [46]: > 3.98 µM (inactive)
- Ki [47]: > 2 µM (inactive)
- Ki (Activated CDC42 kinase 1): > 3.98 µM (inactive)
- Ki [48]: > 6.31 µM (inactive)
- Ki [49]: > 6.31 µM (inactive)
